Measurements reported in patent US5948436A, “Pharmaceutical composition” (Abbott Laboratories, priority 1995, dated 1999).

What was measured:
[1] = Oral bioavailability studies in dogs (AUC after oral vs. intravenous dose); set-up: species or system dog (beagle dogs, mixed sexes); conditions: dog, in vivo, 5 mg/kg
Description: Each dog received a single solid dosage form corresponding to a 5 mg/kg dose of the drug.

HIV-1 protease = HIV-1 protease (HIV-1 M:B_HXB2R, UniProt P04585); assay type: biochemical
HIV-2 protease = test: Inhibition of HIV-2 protease; assay type: biochemical

Row | SMILES | bioavailability [1] | inhibition of HIV-1 protease (HIV-1 protease) | inhibition of HIV-2 protease (HIV-2 protease)
1 | CC(C)c1nc(CN(C)C(=O)N[C@H](C(=O)N[C@@H](Cc2ccccc2)C[C@H](O)[C@H](Cc2ccccc2)NC(=O)OCc2cncs2)C(C)C)cs1 [compound III, (2S,3S,5S)-5-(N-(N-((N-Methyl-N-((2-isopropyl-4-thiazolyl)methyl)-amino)carbonyl)valinyl)amino)-2-(N-((5-thiazolyl)methoxycarbonyl)amino)-1,6-diphenyl-3-hydroxyhexane] | < 2% | – | –
2 | CC(C)c1nc(CN(C)C(=O)NC(C(=O)NC(Cc2ccccc2)CC(O)C(Cc2ccccc2)NC(=O)OCc2cncs2)C(C)C)cs1 (stereo not drawn) [formula II] | – | especially effective | especially effective
